Test results as given in patent publication US20050014782A1, “Novel n-(heterobicycloalkanes)-substituted indoles-or heteroderivatives thereof” (Boehringer Ingelheim International GmbH, priority 2003, published 2005).
Where a name gives a salt, the structure may show the parent alone.

Columns and labels:
[1] = biological target: T1, human chemokine receptor CCR-3 (Homo sapiens, UniProt P51677); assay: CCR-3 receptor binding assay, 125Jodine-eotaxin-1 Scintillation Proximity Assay (SPA)
T1 construct: expressed in transfected cells; host or cells: K562 cells (clone hCCR-3-C1), membranes
T1 sequence (P51677 1-355): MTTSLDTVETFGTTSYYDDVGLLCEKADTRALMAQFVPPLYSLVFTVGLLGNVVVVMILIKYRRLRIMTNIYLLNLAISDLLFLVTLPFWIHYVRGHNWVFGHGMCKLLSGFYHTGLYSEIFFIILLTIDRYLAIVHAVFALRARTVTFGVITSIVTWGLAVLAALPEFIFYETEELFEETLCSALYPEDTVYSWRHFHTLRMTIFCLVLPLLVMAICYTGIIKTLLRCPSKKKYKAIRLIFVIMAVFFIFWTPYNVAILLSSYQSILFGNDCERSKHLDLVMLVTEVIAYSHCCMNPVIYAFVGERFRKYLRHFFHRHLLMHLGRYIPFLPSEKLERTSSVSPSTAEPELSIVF
Protocol: The CCR-3 receptor binding test is based on a K562 cell line (leukemia myelogenic blast cells) transfected with the human chemokine receptor CCR-3 (hCCR-3-C1). The cell membranes were prepared by disrupting the hCCR-3 transfected K562 cells by […] and centrifugation at 40000 g, 4° C. for 1 h. The membranes were re-suspended in the SPA incubation buffer without bovine serum albumin for storage in aliquots at −80° C.
The CCR-3 receptor binding assay with the radioligand ^125Jodine-eotaxin-1 was performed in a Scintillation Proximity Assay (SPA) design. Cell membranes of hCCR-3 C1 cells were diluted in suitable concentrations (0.5-5 ug protein/well) in 96 well microtiter plates (1450-401, Wallac).
The test incubation mixture comprising 60 μl of the membrane suspension, 80 μl of the Wheat Germ Agglutinin coated PVT beads (organic scintillator, Amersham Pharmacia biotech) in a concentration of 0.4 mg and 40 μl of radiolabelled ^125J rhEotaxin (Amersham, IM290) were incubated with 20 μl of the test compound (dissolved in DMSO dilutions) for 2 hours. The SPA incubation buffer contained 25 mM HEPES, 25 mM MgCl2 6×H2O, 1 mM CaCl2 2×H2O and 0.1% bovine serum albumin. Included were controls for specific binding (no displacer added) and non-specific binding by adding unlabelled rhEotaxin (R&D Systems) or a test compound. Bound radioactivity was determined by scintillation counter (Micro Beta “Trilux”, Wallac). Determination of affinity of test compounds (dissociation constant Ki) was calculated by iterative fitting of experimental data using the law of mass action based program “easy sys” (Schittkowski, Num Math 68, 129-142 (1994)).

Structure (SMILES) | Ki [1] | melting point
Fc1ccc(SCCCN2C3CCC2CC(n2c(C4CC4)nc4cc(F)ccc42)C3)cc1 (centres unmarked) [Example 9, 2-Cyclopropyl-5-fluoro-1-{8-[3-(4-fluoro-phenylsulfanyl)-propyl]-8-aza-bicyclo[3.2.1]oct-3-yl}1H-benzoimidazole] | 10 nM | 
Cc1nc2cc(F)ccc2n1C1CC2CCC(C1)N2CCCSc1ccc(F)cc1 (centres unmarked) [Example 11, 5-Fluoro-1-{8-[3-(4-fluoro-phenylsulfanyl)-propyl]-8-aza-bicyclo[3.2.1]oct-3-yl}-2-methyl-1H-benzoimidazole] | 14 nM | 
Cc1nc2cc(F)ccc2n1C1CC2CCC(C1)N2CCCSc1ccc(F)cc1 (centres unmarked) (as salt: HCl) [Example 11, 5-Fluoro-1-{8-[3-(4-fluoro-phenylsulfanyl)-propyl]-8-aza-bicyclo[3.2.1]oct-3-yl}-2-methyl-1H-benzoimidazole] |  | 240 to 241 °C
CCc1nc2cc(F)ccc2n1C1CC2CCC(C1)N2CCCSc1ccc(F)cc1 (centres unmarked) (as salt: HCl) [Example 10, 2-Ethyl-5-fluoro-1-{8-[3-(4-fluoro-phenylsulfanyl)-propyl]-8-aza-bicyclo[3.2.1]oct-3-yl}-1H-benzoimidazole] |  | 127 to 128 °C
CCc1nc2cc(F)ccc2n1C1CC2CCC(C1)N2CCCSc1ccc(F)cc1 (centres unmarked) [Example 10, 2-Ethyl-5-fluoro-1-{8-[3-(4-fluoro-phenylsulfanyl)-propyl]-8-aza-bicyclo[3.2.1]oct-3-yl}-1H-benzoimidazole] | 6.5 nM | 
